# From patent publication EP3248604A1, “AGENTS FOR MODULATION OF WNT-TCF SIGNALLING AND USES THEREOF” (UNIVERSITE DE GENEVE, priority 2016, dated 2017)
# Experiments:
# [1] = tested on: Epigenetic regulators; test: RT-qPCR gene expression in Ls174T cells, epigenetic regulators; type: cell-based, human; design: key: ratio normalized to DMSO control = 1; details: vs DMSO=1
# Procedure: (§1) RT-qPCR was performed as in Melotti et al. (2014, supra) using BioRad equipment and reagents. Cells cultured in nitro were treated with the desired concentration of drug in DMEM-F12 and reduced serum (2.5% FBS) for 16h, unless otherwise noted, and collected in Trizol (Sigma) before total RNA extraction and cDNA synthesis. Primers were as in Table 1. HPRT (gene encoding Hypoxanthine phosphoribosyltransferase 1) and βACTIN were used as housekeeping controls for normalization.
# (§2) Nine components of the three pathways (WNT-TCF, BMP/TGFβ and chemokine/cytokine), and the top 6 repressed epigenetic regulators (ZMYND8, EED, SMARCAL1, TBLIXR1, SETD6 and TAF5L) (Figure 12) were tested for their modulation by dnTCF and their timed response to CAP2 treatment. […] DnTCF also repressed the expression of BMP4, SMAD6, IL8, CXCL3 and CXCL5, but expression of IL33 was enhanced. […] BMP4 and ID2 were also repressed at 2 and 4h but SMAD6 was repressed only at 4h. CXCL3 was already repressed at 2h, IL8 was little affected and IL33 and CXCL5 were enhanced at 2h. At 4 h only CXCL3 was repressed and the other three cytokine/chemokine genes tested (IL8, IL33 and CXCL5) were neither enhanced nor repressed. […] All values are normalized ratios with DMSO-controls, which were equated to 1 Table 14
# [2] = tested on: Epigenetic regulators; test: RT-qPCR of epigenetic regulators in U87 cells; type: cell-based, human; details: 0.5 µM
# Procedure: as §1
# (§3) The WNT-TCF-independent repressive activity of CAP2 on epigenetic regulators may be extrapolated to other cancer cells as it was also detected in HT29 and CC14 human colon cancer cells, in MeWo human melanoma cells as well as in U87 and U251 human glioma cells. In all these different human cancer cells, CAP2 (at 0.5 µM) modulated the expression of ZMYND8, SMARCAL1, TBLIXR1, SETD6 and TAF5Ls (Table 15).
# [3] = tested on: Epigenetic regulators; test: RT-qPCR of epigenetic regulators in U251 cells; type: cell-based, human; details: 0.5 µM
# Procedure: as §1, §3
# [4] = tested on: DLD1 cells; details: FACS, vs DMSO
# Procedure: (§5) Cell were plated with different concentrations of compounds in a 96-well format and incubated in standard conditions for 6h and imaged. Active (cleaved) Caspase-3^+ apoptosis was determined using the BD Pharmigen kit and FACS (fluorescence-activated cell sorting).
# [5] = tested on: Chemokine/cytokine; test: RT-qPCR gene expression in Ls174T cells, chemokine/cytokine genes; type: cell-based, human; design: key: ratio normalized to DMSO control = 1; details: vs DMSO=1
# Procedure: as §1, §2
# [6] = tested on: Ls174T cells; details: FACS, vs DMSO
# Procedure: as §5
# [7] = tested on: chromatin components and remodelers; test: Microarray analysis of chromatin components and remodelers in Ls174T cells; type: cell-based, human; details: CAP2-treated cells vs DMSO
# Procedure: Cells treated with compounds were collected in Trizol and RNA was harvested using standard protocols. Quality and quantity of RNA was checked using Nano Series (Agilent Technologies). Samples with a RNA Integrity Number (RIN) >9/10 were chosen and cDNA and cRNA samples were prepared using GeneChip IVT Express kit. Genechip hybridization was done using the same kit and applied to PrimeView U219 human array (Affymetrix) in the Genomic Platform at the Faculty of Medicine, University of Geneva.
# Mining the transcriptome of CAP2-treated cells for CAP2-induced expression changes the public Reactome database for a chromatin organization cluster expanded to include related family members (94 probes) was used.
# [8] = tested on: WNT-TCF targets; test: RT-qPCR gene expression in H358 lung cancer cells; type: cell-based, human; details: 16h, batch 3, vs DMSO=1
# Procedure: as §1
# (§4) Primary colon cells CC14, CC36 and mCC11, colon cancer cell lines DLD1, HT29, Ls174T, melanoma cell line MeWo, glioblastoma cell lines U87 and U251, and the lung cancer cell line H358 were cultured in DMEM-F12 with 10% FBS under standard in nitro conditions.
# [9] = tested on: WNT-TCF targets; test: RT-qPCR gene expression in mCC11 primary colon cancer cells; type: cell-based, human
# Procedure: as §1, §4
# [10] = 1.25µM, 16h, batch 3, vs DMSO=1
compound,measurement,setting,value
CC1=C(C)C(=O)O[C@@H]([C@](C)(O)[C@]2(O)CC[C@@]3(O)[C@@H]4CC=C5CC=CC(=O)[C@]5(C)[C@H]4CC[C@]23C)C1 [CAP2],EED expression,"[1]; 5µM batch 3, 2h post-treatment",1.5
same,SETD6 expression,"[1]; 5µM batch 3, 2h post-treatment",2.0
same,SMARCAL1 expression,"[1]; 5µM batch 3, 2h post-treatment",1.6
same,TAF5L expression,"[1]; 5µM batch 3, 2h post-treatment",0.8
same,TBL1XR1 expression,"[1]; 5µM batch 3, 2h post-treatment",2.6
same,ZMYND8 expression,"[1]; 5µM batch 3, 2h post-treatment",1.3
same,EED expression,"[1]; 5µM batch 3, 4h post-treatment",0.5
same,SETD6 expression,"[1]; 5µM batch 3, 4h post-treatment",0.7
same,SMARCAL1 expression,"[1]; 5µM batch 3, 4h post-treatment",0.8
same,TAF5L expression,"[1]; 5µM batch 3, 4h post-treatment",0.3
same,TBL1XR1 expression,"[1]; 5µM batch 3, 4h post-treatment",0.6
same,ZMYND8 expression,"[1]; 5µM batch 3, 4h post-treatment",0.5
same,EED expression,[2],0.2
same,SETD6 expression,[2],0.3
same,SMARCAL1 expression,[2],0.2
same,TAF5L expression,[2],0.5
same,TBL1XR1 expression,[2],0.2
same,ZMYND8 expression,[2],0.1
same,EED expression,[3],0.8
same,SETD6 expression,[3],0.9
same,SMARCAL1 expression,[3],0.5
same,TAF5L expression,[3],1.1
same,TBL1XR1 expression,[3],0.6
same,ZMYND8 expression,[3],0.4
same,concentration from which activated Caspase3 labeled cells increase,[4],2.5 µM
same,CXCL3 expression,"[5]; 5µM batch 3, 2h post-treatment",0.2
same,CXCL5 expression,"[5]; 5µM batch 3, 2h post-treatment",1.3
same,IL8 expression,"[5]; 5µM batch 3, 2h post-treatment",0.7
same,IL33 expression,"[5]; 5µM batch 3, 2h post-treatment",1.4
same,CXCL3 expression,"[5]; 5µM batch 3, 4h post-treatment",0.1
same,CXCL5 expression,"[5]; 5µM batch 3, 4h post-treatment",1.1
same,IL8 expression,"[5]; 5µM batch 3, 4h post-treatment",0.8
same,IL33 expression,"[5]; 5µM batch 3, 4h post-treatment",1.1
same,concentration from which activated Caspase3 labeled cells increase,[6],2.5 µM
same,EED repression,[7],8 fold
same,SMARCAL1 repression,[7],6 fold
same,ZMYND8 repression,[7],28 fold
same,AXIN2 expression,[8]; 1.25µM,0.8
same,LEF1 expression,[8]; 1.25µM,0.4
same,AXIN2 expression,[8]; 2.5µM,0.7
same,LEF1 expression,[8]; 2.5µM,0.6
same,AXIN2 expression,[8]; 5µM,0.6
same,LEF1 expression,[8]; 5µM,0.4
same,AXIN2 expression,[8]; 10µM,0.4
same,LEF1 expression,[8]; 10µM,0.2
same,AXIN2 expression,[9]; [10],0.6
same,LGR5 expression,[9]; [10],0.8
same,AXIN2 expression,"[9]; 2.5µM, 16h, batch 3, vs DMSO=1",0.5
same,LGR5 expression,"[9]; 2.5µM, 16h, batch 3, vs DMSO=1",0.3
same,AXIN2 expression,"[9]; 5µM, 16h, batch 3, vs DMSO=1",0.3
same,LGR5 expression,"[9]; 5µM, 16h, batch 3, vs DMSO=1",0.1
same,AXIN2 expression,"[9]; 10µM, 16h, batch 3, vs DMSO=1",0.3
same,LGR5 expression,"[9]; 10µM, 16h, batch 3, vs DMSO=1",0.04
same,ASCL2 expression,"[9]; Table 7, 1.25µM, vs DMSO=1",0.3
same,AXIN2 expression,"[9]; Table 7, 1.25µM, vs DMSO=1",0.6
same,CDKN1A expression,"[9]; Table 7, 1.25µM, vs DMSO=1",1.4
same,LEF1 expression,"[9]; Table 7, 1.25µM, vs DMSO=1",0.3
same,LGR5 expression,"[9]; Table 7, 1.25µM, vs DMSO=1",0.8
same,cMYC expression,"[9]; Table 7, 1.25µM, vs DMSO=1",0.5
same,ASCL2 expression,"[9]; Table 7, 2.5µM, vs DMSO=1",0.2
same,AXIN2 expression,"[9]; Table 7, 2.5µM, vs DMSO=1",0.5
same,CDKN1A expression,"[9]; Table 7, 2.5µM, vs DMSO=1",2.7
same,LEF1 expression,"[9]; Table 7, 2.5µM, vs DMSO=1",0.4
same,LGR5 expression,"[9]; Table 7, 2.5µM, vs DMSO=1",0.3
same,cMYC expression,"[9]; Table 7, 2.5µM, vs DMSO=1",0.3
same,ASCL2 expression,"[9]; Table 7, 5µM, vs DMSO=1",0.1
same,AXIN2 expression,"[9]; Table 7, 5µM, vs DMSO=1",0.3
same,CDKN1A expression,"[9]; Table 7, 5µM, vs DMSO=1",6.5
same,LEF1 expression,"[9]; Table 7, 5µM, vs DMSO=1",0.5
same,LGR5 expression,"[9]; Table 7, 5µM, vs DMSO=1",0.1
same,cMYC expression,"[9]; Table 7, 5µM, vs DMSO=1",0.1
same,ASCL2 expression,"[9]; Table 7, 10µM, vs DMSO=1",0.02
same,AXIN2 expression,"[9]; Table 7, 10µM, vs DMSO=1",0.3
same,CDKN1A expression,"[9]; Table 7, 10µM, vs DMSO=1",5.3
same,LEF1 expression,"[9]; Table 7, 10µM, vs DMSO=1",0.6
same,LGR5 expression,"[9]; Table 7, 10µM, vs DMSO=1",0.04
same,cMYC expression,"[9]; Table 7, 10µM, vs DMSO=1",0.1
